Laboratory results from ChEMBL document CHEMBL3885881, “DrugMatrix”.

Species: Rattus norvegicus
Assay: DrugMatrix - Regimen: Daily Repeat
Assay type: toxicity, organism-based, Sprague-Dawley
Parameters: regimen Daily Repeat, gender Male, age 6-8 weeks
Details: in vivo, iv, vehicle 100 % SALINE; for ABSOLUTE BASOPHIL / ABSOLUTE EOSINOPHIL / ABSOLUTE LYMPHOCYTE / ABSOLUTE MONOCYTE / ABSOLUTE SEGMENTED NEUTROPHIL / BASOPHIL / EOSINOPHIL / ERYTHROCYTE COUNT / HEMATOCRIT / HEMOGLOBIN / LEUKOCYTE COUNT / LYMPHOCYTE / MEAN CORPUSCULAR HEMOGLOBIN / MEAN CORPUSCULAR HEMOGLOBIN CONCENTRATION / MEAN CORPUSCULAR VOLUME / MONOCYTE / NEUTROPHIL / NUCLEATED RED BLOOD CELLS / PLATELET COUNT: tissue Blood; for ALANINE AMINOTRANSFERASE / ALBUMIN / ALKALINE PHOSPHATASE / ASPARTATE AMINOTRANSFERASE / BLOOD UREA NITROGEN / CARBON DIOXIDE / CHOLESTEROL / CREATINE PHOSPHOKINASE / CREATININE / GLUCOSE / LACTATE DEHYDROGENASE / LIPASE / PHOSPHORUS / POTASSIUM / SODIUM / TOTAL BILIRUBIN / TOTAL PROTEIN / URIC ACID: tissue Plasma
[1] = 18 mg/kg, 120 h, dose level High, time 5 day
[2] = […], 72 h, dose 7.5 mg/Kg, dose level Low, time 3 day
[3] = […], 120 h, dose 7.5 mg/Kg, dose level Low, time 5 day

N=C(N)c1ccc(OCCCCCOc2ccc(C(=N)N)cc2)cc1 [PENTAMIDINE]
ABSOLUTE BASOPHIL [1]: 0 CELLS/uL
ABSOLUTE EOSINOPHIL [1]: 0 CELLS/uL
ABSOLUTE LYMPHOCYTE [1]: 15017 CELLS/uL
ABSOLUTE MONOCYTE [1]: 444.33 CELLS/uL
ABSOLUTE SEGMENTED NEUTROPHIL [1]: 972 CELLS/uL
BASOPHIL [1]: 0%
EOSINOPHIL [1]: 0%
ERYTHROCYTE COUNT [1]: 6.15 x10E6/uL
HEMATOCRIT [1]: 37.9%
HEMOGLOBIN [1]: 14.2 G/DL
LEUKOCYTE COUNT [1]: 16.43 x10E3/uL
LYMPHOCYTE [1]: 91.33%
MEAN CORPUSCULAR HEMOGLOBIN [1]: 23.07 pg
MEAN CORPUSCULAR HEMOGLOBIN CONCENTRATION [1]: 37.5 G/DL
MEAN CORPUSCULAR VOLUME [1]: 61.53 fL
MONOCYTE [1]: 2.67%
NEUTROPHIL [1]: 6%
NUCLEATED RED BLOOD CELLS [1]: 0 /100WBC
PLATELET COUNT [1]: 1455 x10E3/uL
ALANINE AMINOTRANSFERASE [1]: 44.33 u/L
ALBUMIN [1]: 4.3 G/DL
ALKALINE PHOSPHATASE [1]: 288.33 u/L
ASPARTATE AMINOTRANSFERASE [1]: 71 u/L
BLOOD UREA NITROGEN [1]: 13.67 mg/dL
CARBON DIOXIDE [1]: 26.67 mmol/L
CHOLESTEROL [1]: 57 mg/dL
CREATINE PHOSPHOKINASE [1]: 246.67 u/L
CREATININE [1]: 0.22 mg/dL
GLUCOSE [1]: 166.33 mg/dL
LACTATE DEHYDROGENASE [1]: 175 u/L
LIPASE [1]: 8.67 u/L
PHOSPHORUS [1]: 11.6 mg/dL
POTASSIUM [1]: 5.78 MEQ/L
SODIUM [1]: 146.7 MEQ/L
TOTAL BILIRUBIN [1]: 0.2 mg/dL
TOTAL PROTEIN [1]: 6.13 G/DL
URIC ACID [1]: 1.93 mg/dL
ABSOLUTE BASOPHIL [2]: 0 CELLS/uL
ABSOLUTE EOSINOPHIL [2]: 0 CELLS/uL
ABSOLUTE LYMPHOCYTE [2]: 12540 CELLS/uL
ABSOLUTE MONOCYTE [2]: 234 CELLS/uL
ABSOLUTE SEGMENTED NEUTROPHIL [2]: 1759.33 CELLS/uL
BASOPHIL [2]: 0%
EOSINOPHIL [2]: 0%
ERYTHROCYTE COUNT [2]: 5.88 x10E6/uL
HEMATOCRIT [2]: 37.37%
HEMOGLOBIN [2]: 14.03 G/DL
LEUKOCYTE COUNT [2]: 14.53 x10E3/uL
LYMPHOCYTE [2]: 86.67%
MEAN CORPUSCULAR HEMOGLOBIN [2]: 23.9 pg
MEAN CORPUSCULAR HEMOGLOBIN CONCENTRATION [2]: 37.53 G/DL
MEAN CORPUSCULAR VOLUME [2]: 63.63 fL
MONOCYTE [2]: 1.67%
NEUTROPHIL [2]: 11.67%
NUCLEATED RED BLOOD CELLS [2]: 0 /100WBC
PLATELET COUNT [2]: 1241.67 x10E3/uL
ALANINE AMINOTRANSFERASE [2]: 54.33 u/L
ALBUMIN [2]: 4.63 G/DL
ALKALINE PHOSPHATASE [2]: 393 u/L
ASPARTATE AMINOTRANSFERASE [2]: 80.67 u/L
BLOOD UREA NITROGEN [2]: 15.33 mg/dL
CARBON DIOXIDE [2]: 24.67 mmol/L
CHOLESTEROL [2]: 69.67 mg/dL
CREATINE PHOSPHOKINASE [2]: 265 u/L
CREATININE [2]: 0.17 mg/dL
GLUCOSE [2]: 136.67 mg/dL
LACTATE DEHYDROGENASE [2]: 184 u/L
LIPASE [2]: 9 u/L
PHOSPHORUS [2]: 10.97 mg/dL
POTASSIUM [2]: 6.64 MEQ/L
SODIUM [2]: 143.8 MEQ/L
TOTAL BILIRUBIN [2]: 0.23 mg/dL
TOTAL PROTEIN [2]: 5.83 G/DL
URIC ACID [2]: 1.97 mg/dL
ABSOLUTE BASOPHIL [3]: 0 CELLS/uL
ABSOLUTE EOSINOPHIL [3]: 183 CELLS/uL
ABSOLUTE LYMPHOCYTE [3]: 14369.67 CELLS/uL
ABSOLUTE MONOCYTE [3]: 485 CELLS/uL
ABSOLUTE SEGMENTED NEUTROPHIL [3]: 1795.67 CELLS/uL
BASOPHIL [3]: 0%
EOSINOPHIL [3]: 1%
ERYTHROCYTE COUNT [3]: 5.98 x10E6/uL
HEMATOCRIT [3]: 38.47%
HEMOGLOBIN [3]: 14.17 G/DL
LEUKOCYTE COUNT [3]: 16.83 x10E3/uL
LYMPHOCYTE [3]: 85%
MEAN CORPUSCULAR HEMOGLOBIN [3]: 23.7 pg
MEAN CORPUSCULAR HEMOGLOBIN CONCENTRATION [3]: 36.83 G/DL
MEAN CORPUSCULAR VOLUME [3]: 64.37 fL
MONOCYTE [3]: 3%
NEUTROPHIL [3]: 11%
NUCLEATED RED BLOOD CELLS [3]: 0 /100WBC
PLATELET COUNT [3]: 1425 x10E3/uL
ALANINE AMINOTRANSFERASE [3]: 42.67 u/L
ALBUMIN [3]: 4.57 G/DL
ALKALINE PHOSPHATASE [3]: 364.67 u/L
ASPARTATE AMINOTRANSFERASE [3]: 84.33 u/L
BLOOD UREA NITROGEN [3]: 18.67 mg/dL
CARBON DIOXIDE [3]: 27.67 mmol/L
CHOLESTEROL [3]: 76.67 mg/dL
CREATINE PHOSPHOKINASE [3]: 325 u/L
CREATININE [3]: 0.23 mg/dL
GLUCOSE [3]: 145 mg/dL
LACTATE DEHYDROGENASE [3]: 461.33 u/L
LIPASE [3]: 9 u/L
PHOSPHORUS [3]: 11.17 mg/dL
POTASSIUM [3]: 6.1 MEQ/L
SODIUM [3]: 143.03 MEQ/L
TOTAL BILIRUBIN [3]: 0.23 mg/dL
TOTAL PROTEIN [3]: 6.3 G/DL
URIC ACID [3]: 1.33 mg/dL
